Reference: patent publication US6534524B1, “Indazole compounds and pharmaceutical compositions for inhibiting protein kinases, and methods for their use” (Agouron Pharmaceuticals, Inc., priority 1999, dated 2003)

Tested on: human umbilical vein endothelial cells (HUVEC)
Test: HUVEC proliferation assay (VEGF-stimulated, MTT)
Type: cell-based
Settings: Library III; HUVEC proliferation; nominal concentration of 0.5 nM; crude reaction mixtures

Going from `O=C(Nc1ccc(F)cc1)c1ccccc1Sc1ccc2c(/C=C/c3ccccn3)n[nH]c2c1` to `O=C(Nc1ccc(Cl)cc1)c1ccccc1Sc1ccc2c(/C=C/c3ccccn3)n[nH]c2c1`, the “% inhibition” value falls from −1% to −12%.

Going from `O=C(Nc1ccccc1-c1ccccc1)c1ccccc1Sc1ccc2c(/C=C/c3ccccn3)n[nH]c2c1` to `O=C(Nc1cccc2ccccc12)c1ccccc1Sc1ccc2c(/C=C/c3ccccn3)n[nH]c2c1`, the “% inhibition” value falls from 1% to −33%.

Going from `O=C(Nc1cccc(C(F)(F)F)c1)c1ccccc1Sc1ccc2c(/C=C/c3ccccn3)n[nH]c2c1` to `O=C(Nc1cccc(OC(F)(F)F)c1)c1ccccc1Sc1ccc2c(/C=C/c3ccccn3)n[nH]c2c1`, the “% inhibition” value rises from 4% to 5%.

First: O=C(Nc1cccc2cnccc12)c1ccccc1Sc1ccc2c(/C=C/c3ccccn3)n[nH]c2c1
Second: O=C(Nc1cccc2ncccc12)c1ccccc1Sc1ccc2c(/C=C/c3ccccn3)n[nH]c2c1
The “% inhibition” value of the first is higher: 1% for the first, −37% for the second.

Compared with `O=C(Nc1ccc(Cl)c(Cl)c1)c1ccccc1Sc1ccc2c(/C=C/c3ccccn3)n[nH]c2c1`, `O=C(Nc1ccc(O)c(Cl)c1)c1ccccc1Sc1ccc2c(/C=C/c3ccccn3)n[nH]c2c1` is lower in “% inhibition” value: 8% for the first, −19% for the second.

Compared with `O=C(Nc1ccc(O)cc1)c1ccccc1Sc1ccc2c(/C=C/c3ccccn3)n[nH]c2c1`, `CC(C)c1ccc(NC(=O)c2ccccc2Sc2ccc3c(/C=C/c4ccccn4)n[nH]c3c2)cc1` is lower in “% inhibition” value: 52% for the first, −12% for the second.

Going from `CS(=O)(=O)c1ccc(NC(=O)c2ccccc2Sc2ccc3c(/C=C/c4ccccn4)n[nH]c3c2)cc1` to `CN(C)c1ccc(NC(=O)c2ccccc2Sc2ccc3c(/C=C/c4ccccn4)n[nH]c3c2)cc1`, the “% inhibition” value falls from 19% to 18%.

First: O=C(Nc1ccccc1O)c1ccccc1Sc1ccc2c(/C=C/c3ccccn3)n[nH]c2c1
Second: O=C(Nc1ccccc1CO)c1ccccc1Sc1ccc2c(/C=C/c3ccccn3)n[nH]c2c1
The “% inhibition” value of the first is higher: 13% for the first, 0% for the second.

Going from `O=C(Nc1ccccc1-n1cccc1)c1ccccc1Sc1ccc2c(/C=C/c3ccccn3)n[nH]c2c1` to `COC(=O)c1ccccc1NC(=O)c1ccccc1Sc1ccc2c(/C=C/c3ccccn3)n[nH]c2c1`, the “% inhibition” value rises from −7% to 3%.

Going from `O=C(Nc1ccc2c(O)cccc2c1)c1ccccc1Sc1ccc2c(/C=C/c3ccccn3)n[nH]c2c1` to `O=C(Nc1ccc2[nH]ccc2c1)c1ccccc1Sc1ccc2c(/C=C/c3ccccn3)n[nH]c2c1`, the “% inhibition” value rises from −26% to 43%.

Going from `O=C(Nc1ccc2cn[nH]c2c1)c1ccccc1Sc1ccc2c(/C=C/c3ccccn3)n[nH]c2c1` to `O=C(Nc1ccc2[nH]ncc2c1)c1ccccc1Sc1ccc2c(/C=C/c3ccccn3)n[nH]c2c1`, the “% inhibition” value rises from 7% to 22%.

Going from `O=C(Nc1ccc2c(c1)OCO2)c1ccccc1Sc1ccc2c(/C=C/c3ccccn3)n[nH]c2c1` to `COc1ccc(NC(=O)c2ccccc2Sc2ccc3c(/C=C/c4ccccn4)n[nH]c3c2)cc1Cl`, the “% inhibition” value falls from 9% to 2%.

First: O=C(Nc1cc2ccccc2cc1O)c1ccccc1Sc1ccc2c(/C=C/c3ccccn3)n[nH]c2c1
Second: O=C(Nc1nccc2ccccc12)c1ccccc1Sc1ccc2c(/C=C/c3ccccn3)n[nH]c2c1
The “% inhibition” value of the first is higher: 18% for the first, 4% for the second.

Going from `COc1cc(NC(=O)c2ccccc2Sc2ccc3c(/C=C/c4ccccn4)n[nH]c3c2)cc(C(F)(F)F)c1` to `O=C(Nc1ccc(C(F)(F)F)cc1)c1ccccc1Sc1ccc2c(/C=C/c3ccccn3)n[nH]c2c1`, the “% inhibition” value falls from 10% to −3%.

Compared with `O=C(Nc1ccc(C2CCCCC2)cc1)c1ccccc1Sc1ccc2c(/C=C/c3ccccn3)n[nH]c2c1`, `N#CCc1ccc(NC(=O)c2ccccc2Sc2ccc3c(/C=C/c4ccccn4)n[nH]c3c2)cc1` is lower in “% inhibition” value: 1% for the first, −13% for the second.

`CC(C)(C)c1ccc(CNC(=O)c2ccccc2Sc2ccc3c(/C=C/c4ccccn4)n[nH]c3c2)cc1` and `CC(C)(C)c1ccc(NC(=O)c2ccccc2Sc2ccc3c(/C=C/c4ccccn4)n[nH]c3c2)cc1` are the same in “% inhibition” value: −1% for the first, −1% for the second.

First: CCOc1ccc(NC(=O)c2ccccc2Sc2ccc3c(/C=C/c4ccccn4)n[nH]c3c2)cc1
Second: CCCCOc1ccc(NC(=O)c2ccccc2Sc2ccc3c(/C=C/c4ccccn4)n[nH]c3c2)cc1
The “% inhibition” value of the first is higher: 16% for the first, −6% for the second.

Going from `O=C(Nc1ccc(Cl)cn1)c1ccccc1Sc1ccc2c(/C=C/c3ccccn3)n[nH]c2c1` to `Cc1ccc(NC(=O)c2ccccc2Sc2ccc3c(/C=C/c4ccccn4)n[nH]c3c2)nc1`, the “% inhibition” value rises from −23% to −20%.

First: O=C(Nc1nc2ccccc2s1)c1ccccc1Sc1ccc2c(/C=C/c3ccccn3)n[nH]c2c1
Second: O=C(Nc1ccccn1)c1ccccc1Sc1ccc2c(/C=C/c3ccccn3)n[nH]c2c1
The “% inhibition” value of the first is higher: −15% for the first, −31% for the second.

Compared with `Cc1cccc(NC(=O)c2ccccc2Sc2ccc3c(/C=C/c4ccccn4)n[nH]c3c2)n1`, `Cc1cc(C)nc(NC(=O)c2ccccc2Sc2ccc3c(/C=C/c4ccccn4)n[nH]c3c2)c1` is lower in “% inhibition” value: 10% for the first, 3% for the second.

First: Cc1cccnc1NC(=O)c1ccccc1Sc1ccc2c(/C=C/c3ccccn3)n[nH]c2c1
Second: O=C(Nc1cccnc1)c1ccccc1Sc1ccc2c(/C=C/c3ccccn3)n[nH]c2c1
The “% inhibition” value of the first is lower: −18% for the first, −2% for the second.

Going from `O=C(NC1CCCc2ccccc21)c1ccccc1Sc1ccc2c(/C=C/c3ccccn3)n[nH]c2c1` (stereo not drawn) to `O=C(NC1Cc2ccccc2C1)c1ccccc1Sc1ccc2c(/C=C/c3ccccn3)n[nH]c2c1`, the “% inhibition” value rises from 1% to 7%.

First: COC1C=CC(CNC(=O)c2ccccc2Sc2ccc3c(/C=C/c4ccccn4)n[nH]c3c2)(OC)O1 (stereo not drawn)
Second: COc1ccc(CNC(=O)c2ccccc2Sc2ccc3c(/C=C/c4ccccn4)n[nH]c3c2)c(OC)c1
The “% inhibition” value of the first is lower: 0% for the first, 13% for the second.

Compared with `O=C(Nc1cc(-c2cccs2)n[nH]1)c1ccccc1Sc1ccc2c(/C=C/c3ccccn3)n[nH]c2c1`, `O=C(Nc1ccncc1)c1ccccc1Sc1ccc2c(/C=C/c3ccccn3)n[nH]c2c1` is higher in “% inhibition” value: −11% for the first, 6% for the second.

Compared with `O=C(NC1(CO)CCCC1)c1ccccc1Sc1ccc2c(/C=C/c3ccccn3)n[nH]c2c1`, `O=C(NC[C@@H]1CCCO1)c1ccccc1Sc1ccc2c(/C=C/c3ccccn3)n[nH]c2c1` is lower in “% inhibition” value: −5% for the first, −11% for the second.

First: CC(C)[C@@H](CO)NC(=O)c1ccccc1Sc1ccc2c(/C=C/c3ccccn3)n[nH]c2c1
Second: O=C(NCCCCCCO)c1ccccc1Sc1ccc2c(/C=C/c3ccccn3)n[nH]c2c1
The “% inhibition” value of the first is higher: −19% for the first, −20% for the second.

Compared with `O=C(Nc1ccc2[nH]nnc2c1)c1ccccc1Sc1ccc2c(/C=C/c3ccccn3)n[nH]c2c1`, `COc1ccc(NC(=O)c2ccccc2Sc2ccc3c(/C=C/c4ccccn4)n[nH]c3c2)cc1OC` is higher in “% inhibition” value: −7% for the first, 1% for the second.

First: O=C(NC[C@H](O)c1ccccc1)c1ccccc1Sc1ccc2c(/C=C/c3ccccn3)n[nH]c2c1
Second: O=C(NCCc1cccc(F)c1)c1ccccc1Sc1ccc2c(/C=C/c3ccccn3)n[nH]c2c1
The “% inhibition” value of the first is lower: −34% for the first, 4% for the second.

Compared with `O=C(NCC1COc2ccccc2O1)c1ccccc1Sc1ccc2c(/C=C/c3ccccn3)n[nH]c2c1` (stereo not drawn), `Cc1cccc(CNC(=O)c2ccccc2Sc2ccc3c(/C=C/c4ccccn4)n[nH]c3c2)c1C` is higher in “% inhibition” value: −13% for the first, 13% for the second.

Compared with `O=C(Nc1ccc(Cl)cc1CO)c1ccccc1Sc1ccc2c(/C=C/c3ccccn3)n[nH]c2c1`, `COc1ccc(Cl)cc1NC(=O)c1ccccc1Sc1ccc2c(/C=C/c3ccccn3)n[nH]c2c1` is lower in “% inhibition” value: 48% for the first, −4% for the second.

First: COc1ccc(CCNC(=O)c2ccccc2Sc2ccc3c(/C=C/c4ccccn4)n[nH]c3c2)cc1
Second: Cc1ccc(CCNC(=O)c2ccccc2Sc2ccc3c(/C=C/c4ccccn4)n[nH]c3c2)cc1
The “% inhibition” value of the first is higher: 10% for the first, −1% for the second.

First: O=C(Nc1cnccn1)c1ccccc1Sc1ccc2c(/C=C/c3ccccn3)n[nH]c2c1
Second: O=C(Nc1ccc(Cl)nn1)c1ccccc1Sc1ccc2c(/C=C/c3ccccn3)n[nH]c2c1
The “% inhibition” value of the first is higher: −1% for the first, −21% for the second.

First: Cc1ccc(CNC(=O)c2ccccc2Sc2ccc3c(/C=C/c4ccccn4)n[nH]c3c2)cc1Cl
Second: Cc1ccc(CNC(=O)c2ccccc2Sc2ccc3c(/C=C/c4ccccn4)n[nH]c3c2)cc1C
The “% inhibition” value of the first is lower: −16% for the first, −6% for the second.

First: CCOC(=O)c1ccc(NC(=O)c2ccccc2Sc2ccc3c(/C=C/c4ccccn4)n[nH]c3c2)cc1
Second: COC(=O)c1ccc(NC(=O)c2ccccc2Sc2ccc3c(/C=C/c4ccccn4)n[nH]c3c2)cc1
The “% inhibition” value of the first is lower: −25% for the first, −1% for the second.

First: CCN(CC)c1ccc(NC(=O)c2ccccc2Sc2ccc3c(/C=C/c4ccccn4)n[nH]c3c2)cc1
Second: CCc1ccc(CCNC(=O)c2ccccc2Sc2ccc3c(/C=C/c4ccccn4)n[nH]c3c2)cc1
The “% inhibition” value of the first is higher: −9% for the first, −11% for the second.

Compared with `Cc1ccc(CO)cc1NC(=O)c1ccccc1Sc1ccc2c(/C=C/c3ccccn3)n[nH]c2c1`, `O=C(NCc1ccc(F)c(F)c1)c1ccccc1Sc1ccc2c(/C=C/c3ccccn3)n[nH]c2c1` is lower in “% inhibition” value: 1% for the first, 0% for the second.

First: COc1cc(CNC(=O)c2ccccc2Sc2ccc3c(/C=C/c4ccccn4)n[nH]c3c2)cc(OC)c1
Second: O=C(NCc1ccc(F)cc1F)c1ccccc1Sc1ccc2c(/C=C/c3ccccn3)n[nH]c2c1
The “% inhibition” value of the first is higher: 37% for the first, 11% for the second.

First: CCCCOCCCNC(=O)c1ccccc1Sc1ccc2c(/C=C/c3ccccn3)n[nH]c2c1
Second: O=C(NCCc1ccc(F)cc1)c1ccccc1Sc1ccc2c(/C=C/c3ccccn3)n[nH]c2c1
The “% inhibition” value of the first is lower: −12% for the first, 3% for the second.

First: CC(C)=CCC/C(C)=C/CNC(=O)c1ccccc1Sc1ccc2c(/C=C/c3ccccn3)n[nH]c2c1
Second: O=C(NC1CCOC1=O)c1ccccc1Sc1ccc2c(/C=C/c3ccccn3)n[nH]c2c1 (stereo not drawn)
The “% inhibition” value of the first is lower: −22% for the first, 3% for the second.

Going from `O=C(Nc1cc(Cl)cc(Cl)c1)c1ccccc1Sc1ccc2c(/C=C/c3ccccn3)n[nH]c2c1` to `O=C(NCc1cc(F)ccc1F)c1ccccc1Sc1ccc2c(/C=C/c3ccccn3)n[nH]c2c1`, the “% inhibition” value rises from −22% to 15%.

First: CC(NC(=O)c1ccccc1Sc1ccc2c(/C=C/c3ccccn3)n[nH]c2c1)c1ccc(F)cc1 (stereo not drawn)
Second: CC(NC(=O)c1ccccc1Sc1ccc2c(/C=C/c3ccccn3)n[nH]c2c1)c1ccc(Cl)cc1 (stereo not drawn)
The “% inhibition” value of the first is lower: 2% for the first, 14% for the second.

First: Cc1oc(NC(=O)c2ccccc2Sc2ccc3c(/C=C/c4ccccn4)n[nH]c3c2)c(C#N)c1C
Second: COC(=O)c1sccc1NC(=O)c1ccccc1Sc1ccc2c(/C=C/c3ccccn3)n[nH]c2c1
The “% inhibition” value of the first is higher: 13% for the first, 2% for the second.
